Results on 3 compounds are retold here after patent US6887876B2, “Benzamidine derivatives” (Ortho-McNeil Pharmaceutical, Inc., priority 2000, dated 2005).

Where only a bound is given, the exact number is not on record here.

For assay [1], the target named is T1, δ-opioid receptor (Homo sapiens, UniProt P41143).
T1 construct: purchased Receptor Biology, Baltimore, Md; host or cells: CHO cells (membranes)
Kind of assay: Scintillation screening assay for δ-opioid receptor binding ([3H]bremazocine). The settings on record: cloned human receptor in CHO cell membranes, [3H]bremazocine 2.4 nM, read-out: δ-Opioid Receptor Binding (% Inhibition), % I @ 25 μM. From the text: Scintillation Screening Assay for δ-Opioid Receptor Binding
This is a receptor based screen to detect the competitive binding of test compounds at the δ-opioid receptor against the radioligand, [^3H]bremazocine (S.A.=25.5 Cl/mmol, Dupont/NEN, Cambridge, Mass.). Unknown compounds that bind to the same receptor as the radioligand will compete for the receptor and reduce the amount of radioligand which binds to the receptor. This is detected as a decreased scintillation signal from that particular incubation. The greater affinity an unknown has for the receptor, the larger the observed decrease in […] to the receptor; thus the assay is in the format of an inhibition study.
The receptor is a cloned human cDNA expressed in mammalian CHO cells. Membranes prepared from these cells are purchased from Receptor Biology, Baltimore, Md. The reaction buffer is composed as follows: HEPES (50 mM final), MgCl.6H2O (5 mM final), o-phenanthroline (20 mg/l), aprotinin (10 mg/l), Pefabloc SC (250 mg/l), leupeptin (0.5 mg/l), pepstatin A (0.7 mg/l), trypsin inhibitor (25 mg/l), chymostatin (10 mg/l), pH=7.2. Naloxone, 10 uM, is used to define non-specific binding. The assay employs filtration to capture receptor and bound ligand.
The receptor (membrane) preparation (28 ug protein) is allowed to incubate with the opioid receptor radioligand ([^3H]bremazocine, 2.4 nM) in 96-well plates until equilibrium is reached (>2 hr). Following incubation with the radioligand at 23° C., the well contents are filtered onto 96-well Whatman GF/C filter plates using a Packard cell harvester. Radioligand bound to the receptor also remains on the filter. The filters are rinsed three times with 0.5 mL of physiological saline (0.9% NaCl) to remove any unbound radioligand from the filter. Filters are dried and scintillation fluid is then added to the filters which emits light in proportion to the amount of radioactivity on the filter which is determined using an Packard Topcount scintillation counter. Data are reported as percent inhibition of control binding.

Assay [2] deals with δ-opioid receptor (Rattus norvegicus, UniProt P33533). Kind of assay: Rat brain δ-opioid receptor binding assay ([3H]DPDPE).
Chain of δ-opioid receptor (Rattus norvegicus, UniProt P33533) (P33533 whole entry): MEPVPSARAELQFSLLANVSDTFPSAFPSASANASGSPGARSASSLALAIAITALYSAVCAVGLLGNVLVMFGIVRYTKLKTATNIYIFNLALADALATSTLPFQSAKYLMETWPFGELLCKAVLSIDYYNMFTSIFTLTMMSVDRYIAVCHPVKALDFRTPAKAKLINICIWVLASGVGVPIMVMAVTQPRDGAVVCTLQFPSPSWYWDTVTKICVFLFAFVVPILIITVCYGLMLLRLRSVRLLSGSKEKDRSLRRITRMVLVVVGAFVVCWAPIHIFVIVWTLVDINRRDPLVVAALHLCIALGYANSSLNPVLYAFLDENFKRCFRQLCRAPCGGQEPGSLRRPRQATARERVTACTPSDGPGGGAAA
A further assay concerns the target μ-opioid receptor (Rattus norvegicus, UniProt P33535). The experiment in a line: Rat brain μ-opioid receptor binding assay ([3H]DAMGO).
For assay [3], the system named is acetylcholine bromide-induced abdominal constriction response. Kind of assay: Mouse acetylcholine bromide-induced abdominal constriction assay (MAIT). It counts as in vivo. The settings on record: po, 0.5 h, 150 μmole/Kg p.o., acetylcholine bromide 5.5 mg/kg i.p. 30 min later. As to the method:
The mouse acetylcholine-induced abdominal constriction assay, as described by Collier et al. in […]., 32: 295-310, 1968 with minor modifications, was used to assess analgesic potency of the compounds of formula (I). The test drugs or appropriate vehicles were administered orally (p.o.) and 30 min later the animal received an intraperitoneal (i.p.) injection of 5.5 mg/kg acetylcholine bromide (Matheson, Coleman and Bell, East Rutherford, N.J.). The mice were then placed in groups of three into glass bell jars and observed for a ten min observation period for the occurrence of an abdominal constriction response (defined as a wave of constriction and elongation passing caudally along the abdominal wall, accompanied by a twisting of the trunk and followed by extension of the hind limbs). For compounds of the present invention, the percent inhibition of this response to a nociceptive stimulus (equated to % analgesia) was calculated as follows: [formula]

T1 sequence (P41143 whole entry): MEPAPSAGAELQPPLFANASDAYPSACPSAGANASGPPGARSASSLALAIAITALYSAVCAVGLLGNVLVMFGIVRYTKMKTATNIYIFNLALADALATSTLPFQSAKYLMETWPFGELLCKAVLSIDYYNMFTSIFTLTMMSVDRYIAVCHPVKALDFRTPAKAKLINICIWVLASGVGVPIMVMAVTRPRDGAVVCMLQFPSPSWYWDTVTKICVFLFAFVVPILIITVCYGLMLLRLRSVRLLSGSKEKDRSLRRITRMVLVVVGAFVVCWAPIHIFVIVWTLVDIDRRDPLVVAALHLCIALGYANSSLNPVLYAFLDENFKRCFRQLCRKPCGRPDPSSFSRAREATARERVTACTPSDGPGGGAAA
Chain of μ-opioid receptor (P33535 whole entry): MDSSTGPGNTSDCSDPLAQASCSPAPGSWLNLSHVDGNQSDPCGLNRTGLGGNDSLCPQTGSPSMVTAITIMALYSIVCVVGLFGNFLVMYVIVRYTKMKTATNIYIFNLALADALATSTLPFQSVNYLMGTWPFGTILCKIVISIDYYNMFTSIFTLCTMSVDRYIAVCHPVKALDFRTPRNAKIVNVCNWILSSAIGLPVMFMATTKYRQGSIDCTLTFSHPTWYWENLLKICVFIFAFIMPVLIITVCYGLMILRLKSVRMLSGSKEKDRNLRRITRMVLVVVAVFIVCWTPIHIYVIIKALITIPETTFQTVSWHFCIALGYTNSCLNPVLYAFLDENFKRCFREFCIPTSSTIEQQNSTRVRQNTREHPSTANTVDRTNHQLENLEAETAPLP

`CCCN(CCC)C(=O)c1ccc(C(=Nc2cccc(Br)c2)N2CCN(CC)CC2)cc1` [Compound 5, 4-[[(3-bromophenyl)imino](4-ethyl-1-piperazinyl)methyl]-N,N-dipropyl-benzamide]: the inhibition at 25 µM at δ-opioid receptor [1] is 100%. Also, the Ki at δ-opioid receptor [2] was found to be 39.2 nM; at μ-opioid receptor, 5510 nM. This compound came in with an inhibition in vivo at 150 µmol/kg in assay [3] of 14.3%.
Taken in the same sequence, the figures for `CCN1CCN(C(=Nc2ccccc2)c2ccc(C(=O)N(CC)CC)cc2)CC1` [Compound 1, N,N-diethyl-4-[(4-ethyl-1-piperazinyl)(phenylimino)methyl]-benzamide] were 106%, 16 nM, more than 10000 nM and 40%.
Take `CCCN(CCC)C(=O)c1ccc(C(=Nc2cccc(F)c2)N2CCN(CC)CC2)cc1` [Compound 8, 4-[(4-ethyl-1-piperazinyl)[(3-fluorophenyl)imino]methyl]-N,N-dipropyl-benzamide]: at δ-opioid receptor [1], the inhibition at 25 µM came out at 97%. The Ki on δ-opioid receptor [2] was 60.7 nM; at μ-opioid receptor it was 6890 nM. In addition, in assay [3], the inhibition in vivo at 150 µmol/kg was 7.1%.
